The source of these data is patent US6812036B2 (priority 2000, dated 2004).

SMILES strings stand for the structures.

The test system of the test is Antibody #1. The class given is binding, mice.

Regarding `CC(=O)OC[C@]12[C@H](O)C(=O)C(C)=C[C@H]1O[C@@H]1[C@H](O)C[C@@]2(C)[C@]12CO2` [15-acetyl-deoxynivalenol], the cross-reactivity was determined as 358%. With `CC(=O)OC[C@]12C[C@H](OC(=O)CC(C)C)C(C)=C[C@H]1O[C@@H]1[C@H](O)[C@@H](O)[C@@]2(C)[C@]12CO2` [HT-2 toxin] the figure was 9%.
